Assay results taken from PMC7617869, “Molecular glues that inhibit deubiquitylase activity and inflammatory signaling” (Nature Structural & Molecular Biology, 2025).
Values joined by “and” are separate entries in the source; they are usually repeats but may differ in a detail not shown here. Equal entries are not always repeated.

Columns and labels:
[1] = test system: ISG expression in MCF10A Cas9 cells expressing BRCC45 R137A; test: MCF10A BRCC45 R137A ISG expression (RT–qPCR); assay type: cell-based, human; conditions: hIFNα2 75 ng/ml, 2.5 μM, 4 h
[2] = molecular target: T1, ARISC (FL) (Homo sapiens, UniProt P46736+Q6UWZ7+Q9NXR7); test: In-gel deubiquitylation assay, TAMRA-labeled K63-tetraubiquitin, ARISC; assay type: biochemical; conditions: 10 μM or 100 μM inhibitor
T1 construct: full-length BRISC (FL), ARISC (FL); made in house; host or cells: Spodoptera frugiperda Sf9 insect cells (MultiBac)
Protocol: The inhibitor capzimin (Merck) was diluted in 1 mM DTT and incubated for 30 min at room temperature to reduce disulfide bonds required for inhibitor activity. […] DUBs were incubated with 750 nM TAMRA-labeled K63-tetraubiquitin (LifeSensors, SI6304T) for 10 min at 30 °C. Reactions were quenched by adding 2.5 μl of 4× SDS–PAGE loading dye (240 mM Tris-HCl pH 6.8, 40% v/v glycerol, 8% w/v SDS, 0.04% w/v bromophenol blue and 5% v/v β-mercaptoethanol). The samples were resolved on 4–12% NuPAGE Bis–Tris gels (Thermo Fisher Scientific). Gels were scanned using an iBright FL 1500 (Thermo Fisher Scientific) (excitation, 515–545 nm; emission, 568–617 nm; exposure, 500 ms).

[3] = molecular target: T2, BRISC (Homo sapiens, UniProt P46736+Q15018+Q9NXR7); test: Michaelis–Menten analysis of BRISC inhibition; assay type: biochemical; conditions: for mode of inhibition: enzyme activity at different substrate concentrations
T2 construct: made in house; host or cells: Spodoptera frugiperda (Sf9) insect cells, MultiBac
Protocol: IQF assays were performed in DUB reaction buffer containing 50 mM HEPES–NaOH pH 7.0, 100 mM NaCl, 0.1 mg ml^−1 BSA, 1 mM DTT and 0.03% v/v Brij-35. […] The final concentration of BRISC WT, all BRISC mutants, HsBRISCΔLoop, MmBRISC and DrBRISCΔNΔC was 1 nM. Other enzymes were tested at the following concentrations: 5 nM ARISC (FL), 10 nM CfBRISCΔNΔC, 250 nM AMSH* (ref. [43]), 500 nM USP2 and 1 μM trypsin (Sigma, 9002-07-7). For Michaelis–Menten experiments, 1 nM BRISC with 0–1 μM IQF K63-linked diubiquitin substrate was used. Michaelis–Menten analyses and Lineweaver–Burk plots were calculated using GraphPad Prism (version 9.0).

[4] = test system: ISRE in THP-1 cells (TLR9 agonist ODN 2216); test: THP-1 ISRE luciferase reporter, ODN 2216 stimulation; assay type: cell-based, human; conditions: ODN 2216 1 µM, 4 μM compound, 16 h
Protocol: THP-1 in vitro experiments
THP-1-DualTM cells (InvivoGen), derived from a human monocytic cell line, isolated from a patient with acute monocytic leukaemia, were cultured as per manufacturer’s guidance. Cells were seeded at 1x10^6 cells/mL in RPMI1640 media containing 10% fetal bovine serum (FBS), 1% penicillin-streptomycin (PS) (Gibco Laboratories) with DMSO (0.1%) (control) or in media containing JMS-175- […]
ng/mL) (Merck Life Science), ODN 2216 (1 µM) (Miltenyi Biotec), or Poly:IC (1 µg/mL) (InvivoGen).
Tofacitinib (Cambridge Biosciences) at 0.4 µM was used for comparison against a known JAK inhibitor.
Cells were centrifuged at 300 g for 5 minutes. Supernatant was removed and subjected to simultaneous study of the NF -κB pathway, by monitoring the activity of secreted alkaline phosphatase reporter (SEAP), and the IRF pathway, by assessing the activity o f a secreted Lucia luciferase using QUANTI - Blue ™ Solution and QUANTI -Luc™ 4 Lucia/Gaussia (InvivoGen), respectively, as per manufacturer’s instructions. Pelleted cells were used for FACS analysis using IFNα/β R1 APC-conjugated antibody or isotype control (Biotechne, FAB245A and IC002A), or unstained staining procedure with and without Zombie GreenTM (Biolegend). Samples were analysed using CytoFlex LX (Beckman) (50,000 live cells per condition). Median fluorescence intensity for APC channel gated on single cell live cells was analysed and compared as a percentage to control (no stimulation condition). […]

[5] = di-Ub-TAMRA 31.2 nM, inhibitor 48 nM
[6] = di-Ub-TAMRA 31.2 nM, inhibitor 195 nM
[7] = di-Ub-TAMRA 31.2 nM, inhibitor 781 nM
[8] = di-Ub-TAMRA 31.2 nM, inhibitor 3.12 μM
[9] = di-Ub-TAMRA 31.2 nM, inhibitor 12.5 μM
[10] = di-Ub-TAMRA 62.5 nM, inhibitor 48 nM
[11] = di-Ub-TAMRA 62.5 nM, inhibitor 195 nM
[12] = di-Ub-TAMRA 62.5 nM, inhibitor 781 nM
[13] = di-Ub-TAMRA 62.5 nM, inhibitor 3.12 μM
[14] = di-Ub-TAMRA 62.5 nM, inhibitor 12.5 μM
[15] = di-Ub-TAMRA 62.5 nM, inhibitor 50 μM
[16] = di-Ub-TAMRA 125 nM, inhibitor 48 nM
[17] = di-Ub-TAMRA 125 nM, inhibitor 195 nM
[18] = di-Ub-TAMRA 125 nM, inhibitor 781 nM
[19] = di-Ub-TAMRA 125 nM, inhibitor 3.12 μM
[20] = di-Ub-TAMRA 125 nM, inhibitor 12.5 μM
[21] = di-Ub-TAMRA 125 nM, inhibitor 50 μM
[22] = di-Ub-TAMRA 250 nM, inhibitor 48 nM
[23] = di-Ub-TAMRA 250 nM, inhibitor 195 nM
[24] = di-Ub-TAMRA 250 nM, inhibitor 781 nM
[25] = di-Ub-TAMRA 250 nM, inhibitor 3.12 μM
[26] = di-Ub-TAMRA 250 nM, inhibitor 12.5 μM
[27] = di-Ub-TAMRA 250 nM, inhibitor 50 μM
[28] = di-Ub-TAMRA 500 nM, inhibitor 195 nM
[29] = di-Ub-TAMRA 500 nM, inhibitor 3.12 μM
[30] = di-Ub-TAMRA 500 nM, inhibitor 12.5 μM
[31] = di-Ub-TAMRA 1000 nM, inhibitor 48 nM
[32] = di-Ub-TAMRA 1000 nM, inhibitor 195 nM
[33] = di-Ub-TAMRA 1000 nM, inhibitor 781 nM
[34] = di-Ub-TAMRA 1000 nM, inhibitor 3.12 μM
[35] = di-Ub-TAMRA 1000 nM, inhibitor 50 μM

| inhibition of ARISC activity against tetraubiquitin [2] | Compound | ISG expression (ISG15, IFIT1, IFIT2, IFITM1, CXCL10) [1] | Initial velocity (FU/min) [3, 5] | Initial velocity (FU/min) [3, 6] | Initial velocity (FU/min) [3, 7] | Initial velocity (FU/min) [3, 8] | Initial velocity (FU/min) [3, 9] | Initial velocity (FU/min) [3, 10] | Initial velocity (FU/min) [3, 11] | Initial velocity (FU/min) [3, 12] | Initial velocity (FU/min) [3, 13] | Initial velocity (FU/min) [3, 14] | Initial velocity (FU/min) [3, 15] | Initial velocity (FU/min) [3, 16] | Initial velocity (FU/min) [3, 17] | Initial velocity (FU/min) [3, 18] | Initial velocity (FU/min) [3, 19] | Initial velocity (FU/min) [3, 20] | Initial velocity (FU/min) [3, 21] | Initial velocity (FU/min) [3, 22] | also measured |
| --- | --- | --- | --- | --- | --- | --- | --- | --- | --- | --- | --- | --- | --- | --- | --- | --- | --- | --- | --- | --- | --- |
| did not inhibit | O=C(NC1CCNCC1)c1nn(C(=O)c2c(Cl)cccc2Cl)cc1NC(=O)c1c(Cl)cccc1Cl [JMS-175-2] | a reduction in ISG expression was not observed | 124.7 FU/min and 137.4 FU/min and 146.6 FU/min | 137.4 FU/min and 132.5 FU/min and 144.8 FU/min | 114 FU/min and 123.2 FU/min and 122.2 FU/min | 80.48 FU/min and 77.42 FU/min and 88.2 FU/min | 62.2 FU/min and 65.87 FU/min and 55.25 FU/min | 222.1 FU/min and 242.3 FU/min and 243.8 FU/min | 205.5 FU/min and 232 FU/min and 265.7 FU/min | 172.4 FU/min and 226.1 FU/min and 228.4 FU/min | 160.2 FU/min and 117.4 FU/min and 160.5 FU/min | 80.26 FU/min and 123.7 FU/min and 100.7 FU/min | 43.48 FU/min and 66.23 FU/min and 64.63 FU/min | 476.9 FU/min and 540.8 FU/min and 503.9 FU/min | 474.4 FU/min and 538.4 FU/min and 481.2 FU/min | 402.8 FU/min and 468.4 FU/min and 474 FU/min | 310.9 FU/min and 277.7 FU/min and 256.8 FU/min | 183.3 FU/min and 175.6 FU/min and 208.5 FU/min | 67.12 FU/min and 88.75 FU/min and 84.05 FU/min | 886 FU/min and 905.7 FU/min and 906.9 FU/min | Initial velocity (FU/min) ([3]; di-Ub-TAMRA 31.2 nM, inhibitor 50 μM): 31.39 FU/min and 49.47 FU/min and 41.04 FU/min; Initial velocity (FU/min) [3, 23]: 866.4 FU/min and 900.9 FU/min and 960.9 FU/min; Initial velocity (FU/min) [3, 24]: 740.9 FU/min and 834.7 FU/min and 869 FU/min; Initial velocity (FU/min) [3, 25]: 573.6 FU/min and 456.6 FU/min and 483.6 FU/min; Initial velocity (FU/min) [3, 26]: 283.5 FU/min and 316 FU/min and 354.2 FU/min; Initial velocity (FU/min) [3, 27]: 119.1 FU/min and 114.6 FU/min and 160 FU/min; Initial velocity (FU/min) [3, 28]: 1677 FU/min and 3345 FU/min and 1765 FU/min; Initial velocity (FU/min) [3, 29]: 1143 FU/min and 881.4 FU/min and 1578 FU/min; Initial velocity (FU/min) [3, 30]: 579 FU/min and 1146 FU/min and 683.3 FU/min; Initial velocity (FU/min) [3, 31]: 3019 FU/min and 3362 FU/min and 3486 FU/min; Initial velocity (FU/min) [3, 32]: 3093 FU/min and 3236 FU/min and 3210 FU/min; Initial velocity (FU/min) [3, 33]: 2371 FU/min and 2828 FU/min and 2787 FU/min; Initial velocity (FU/min) [3, 34]: 1731 FU/min and 1418 FU/min and 1905 FU/min; Initial velocity (FU/min) ([3]; di-Ub-TAMRA 1000 nM, inhibitor 12.5 μM): 1009 FU/min and 1193 FU/min and 1032 FU/min; Initial velocity (FU/min) [3, 35]: 371.3 FU/min and 640.2 FU/min and 667.9 FU/min; mode of inhibition [3]: not competitive inhibitors |
|  | Cn1cc(NC(=O)c2c(Cl)cccc2Cl)c(C(=O)NC2CCN(C(=O)c3c(Cl)cccc3Cl)CC2)n1 [AP-5-145] |  |  |  |  |  |  |  |  |  |  |  |  |  |  |  |  |  |  |  | ISRE luciferase signal in THP-1 supernatant [4]: 228.667 and 315.667 and 335.333 |
| did not inhibit | O=C(NC1C2CNCC21)c1nn(C(=O)c2c(Cl)cccc2Cl)cc1NC(=O)c1c(Cl)cccc1Cl (stereo not drawn) [FX-171-C] | a reduction in ISG expression was not observed | 121.5 FU/min and 126.3 FU/min and 146.6 FU/min | 104.4 FU/min and 118.9 FU/min and 118.7 FU/min | 76.24 FU/min and 88.16 FU/min and 98.75 FU/min | 58.53 FU/min and 46.27 FU/min and 64.26 FU/min | 38.22 FU/min and 44.65 FU/min and 65.69 FU/min | 182.7 FU/min and 137.5 FU/min and 123.2 FU/min | 166.2 FU/min and 105.9 FU/min and 106.4 FU/min | 126.7 FU/min and 95.78 FU/min and 99.98 FU/min | 70.11 FU/min and 76.58 FU/min and 69.67 FU/min | 34.93 FU/min and 52.19 FU/min and 58.9 FU/min | 28.22 FU/min and 40.49 FU/min and 46.74 FU/min | 467.2 FU/min and 386.6 FU/min and 434.5 FU/min | 414.6 FU/min and 331.3 FU/min and 418.4 FU/min | 304.6 FU/min and 276.4 FU/min and 303.4 FU/min | 173.8 FU/min and 175.1 FU/min and 170.4 FU/min | 92.02 FU/min and 100.3 FU/min and 111.4 FU/min | 36.3 FU/min and 46.67 FU/min and 63.46 FU/min | 794.1 FU/min and 722.2 FU/min and 770.5 FU/min | ISRE luciferase signal in THP-1 supernatant [4]: 149.667 and 263.333 and 287.667; Initial velocity (FU/min) [3, 23]: 732.8 FU/min and 688 FU/min and 641.2 FU/min; Initial velocity (FU/min) [3, 24]: 548.6 FU/min and 487.2 FU/min and 518.3 FU/min; Initial velocity (FU/min) [3, 25]: 309.4 FU/min and 322.6 FU/min and 305.6 FU/min; Initial velocity (FU/min) [3, 26]: 178.9 FU/min and 174 FU/min and 179.5 FU/min; Initial velocity (FU/min) [3, 27]: 67.25 FU/min and 84.89 FU/min and 62.1 FU/min; Initial velocity (FU/min) ([3]; di-Ub-TAMRA 500 nM, inhibitor 48 nM): 1729 FU/min and 1553 FU/min and 1273 FU/min; Initial velocity (FU/min) [3, 28]: 1442 FU/min and 1370 FU/min and 1434 FU/min; Initial velocity (FU/min) ([3]; di-Ub-TAMRA 500 nM, inhibitor 781 nM): 1085 FU/min and 985.1 FU/min and 1129 FU/min; Initial velocity (FU/min) [3, 29]: 624.9 FU/min and 642.2 FU/min and 551.1 FU/min; Initial velocity (FU/min) [3, 30]: 332.6 FU/min and 297.9 FU/min and 255.2 FU/min; Initial velocity (FU/min) ([3]; di-Ub-TAMRA 500 nM, inhibitor 50 μM): 109.3 FU/min and 143.3 FU/min and 196.9 FU/min; Initial velocity (FU/min) [3, 31]: 2734 FU/min and 2460 FU/min and 2836 FU/min; Initial velocity (FU/min) [3, 32]: 2231 FU/min and 2296 FU/min and 2566 FU/min; Initial velocity (FU/min) [3, 33]: 1629 FU/min and 1647 FU/min and 1858 FU/min; Initial velocity (FU/min) [3, 34]: 1134 FU/min; Initial velocity (FU/min) [3, 35]: 213.3 FU/min and 360.7 FU/min and 415.9 FU/min; mode of inhibition [3]: not competitive inhibitors |
